Laboratory results published in patent publication US11970497B2, “Tricyclic AKR1C3 dependent KARS inhibitors” (Novartis AG, priority 2019, dated 2024).

Experiments:
Assay in all cases: Expanded lung cancer cell line proliferation assay
Assay type in all cases: cell-based
NCI-H1573 = conditions: Homo sapiens; NCI-H1573, 72 h, average of PrestoBlue and Cell Titer Glo; AKR1C3 306.2 TPM; read-out: Absolute Qualified AC50
Text: (§1) Cellular Proliferation Assay to Assess Compound Activity in an Expanded Panel of 57 NRF2 Pathway Mutant and Wild Type Lung Cancer Cell Lines.
(§2) Both the PrestoBlue Cell Viability Reagent and Cell Titer Glo were multiplexed together as the final assay readout. PrestoBlue is a cell permeable resazurin-based solution that utilizes the reducing power of living cells to quantitatively measure their proliferation. Cell Titer Glo measures the amount of ATP present, an indicator of metabolically active cells.
(§3) Expanded Lung Cancer Cell Line Proliferation Assay Outline, Analysis and Profiling Results
(§4) Cells were seeded into 384 well assay plates (Greiner Bio-One, Catalog #781080) using the Thermo Scientific Matrix WellMate microplate dispenser and Thermo Scientific Matrix WellMate small bore disposable tubing cartridges (Catalog #201-30002) in 30 μl of growth media (RPMI-1640 supplemented with 10% fetal bovine serum and 1% penicillin/streptomycin) per well (1000 to 2000 cells/well depending on doubling time). Following cell plating, assay plates were placed into tissue culture incubator at 37° C./5% CO2 overnight. The next day one assay plate for each cell line was used for a Day 0 Cell Titer Glo and PrestoBlue readout. 3 μl of PrestoBlue Cell Viability Reagent (Thermo Scientific, Catalog #A13262) was added to each well and then assay plates were incubated at 37° C./5% CO2 for 30 minutes prior to fluorescence readout on the EnVision 2105 multimode plate reader (Perkin Elmer). Following the PrestoBlue readout 18 μl of Cell Titer Glo (Promega, Catalog #G7572) was then added to each well, allowing plates to incubate at room temperature for 10 minutes prior to luminescence readout on the EnVision. Compound was then added to the remaining assay plates (each cell line run in triplicates) using the Labcyte Inc Echo 555 acoustic liquid handler. Compounds were arrayed into a Labcyte Inc Echo qualified 384 well LDV microplate (Cat #LP-0200-GNF10). Compounds were serially diluted 1:3.16 to generate an 8 point dose response for a final top concentration of 1 μM. DMSO (0.3%) was used as the neutral control (NC) and MG132 (30 μM) was used as the active control (AC). 90 nl of compounds were added to 30 μl of cells using the Labcyte Inc Echo 555 acoustic liquid handler for a final DMSO assay concentration of 0.3%. Following compound addition, assay plates were spun down in a tabletop centrifuge at 500 rpm for 1 minute and then placed into tissue culture incubator at 37° C./5% CO2 for 72 h. Following the 72 h incubation, all assay plates were readout using PrestoBlue and Cell Titer Glo using the same conditions previously described for the Day 0 readout. The Day 0 readout (untreated cells) was used to compare to the 72 h DMSO treated samples on each assay plate as a way of tracking each cell line's fold growth. NC1 control based normalization was used for data analysis in Helios, which incorporates the DMSO neutral control (NC) and MG132 active control (AC) for generating dose response curves that are then used to calculate the Absolute Qualified AC50 calls for each compound and cell line.
(§5) NC1 normalization calculation model: NC1: xn=±(x−NC)/(AC−NC)
(§6) +/− is set by the inhibition type parameter setting where NC and AC are averages (mean or median) over the corresponding NC and AC well values. The Qualified Absolute AC50 values for Compound 36 and Compound 40 are listed in the table below and are represented as the average activity in both the PrestoBlue and Cell Titer Glo assay readouts.
(§7) Absolute Qualified AC50 Values Listed Below are a Representation of Each Compounds' Average Activity in Both the PrestoBlue and Cell Titer Glo Assay Readouts.

LCLC-103H = conditions: Homo sapiens, 72 h, average of PrestoBlue and Cell Titer Glo, AKR1C3 2.6 TPM, read-out: Absolute Qualified AC50
Text: as §1, §2, §3, §4, §5, §6, §7

NCI-H460 = conditions: Homo sapiens; NCI-H460, 72 h, average of PrestoBlue and Cell Titer Glo; AKR1C3 865.3 TPM; read-out: Absolute Qualified AC50
Text: as §1, §2, §3, §4, §5, §6, §7

LXF-289 = conditions: Homo sapiens; LXF-289, 72 h, average of PrestoBlue and Cell Titer Glo; AKR1C3 358.4 TPM; read-out: Absolute Qualified AC50
Text: as §1, §2, §3, §4, §5, §6, §7

CAL-12T = conditions: Homo sapiens, 72 h, average of PrestoBlue and Cell Titer Glo, AKR1C3 23.6 TPM, read-out: Absolute Qualified AC50
Text: as §1, §2, §3, §4, §5, §6, §7

NCI-H1435 = conditions: NCI-H1435, 72 h, average of PrestoBlue and Cell Titer Glo; AKR1C3 171.1 TPM; read-out: Absolute Qualified AC50
Text: as §1, §2, §3, §4, §5, §6, §7

EBC-1 = conditions: Homo sapiens; EBC-1, 72 h, average of PrestoBlue and Cell Titer Glo; AKR1C3 92.4 TPM; read-out: Absolute Qualified AC50
Text: as §1, §2, §3, §4, §5, §6, §7

NCI-H2286 = conditions: Homo sapiens; NCI-H2286, 72 h, average of PrestoBlue and Cell Titer Glo; AKR1C3 0.9 TPM; read-out: Absolute Qualified AC50
Text: as §1, §2, §3, §4, §5, §6, §7

ChaGo-K-1 = conditions: Homo sapiens; ChaGo-K-1, 72 h, average of PrestoBlue and Cell Titer Glo; AKR1C3 1.5 TPM; read-out: Absolute Qualified AC50
Text: as §1, §2, §3, §4, §5, §6, §7

NCI-H520 = conditions: Homo sapiens; NCI-H520, 72 h, average of PrestoBlue and Cell Titer Glo; AKR1C3 608.9 TPM; read-out: Absolute Qualified AC50
Text: as §1, §2, §3, §4, §5, §6, §7

HCC2108 = conditions: HCC2108, 72 h, average of PrestoBlue and Cell Titer Glo; AKR1C3 0.5 TPM; read-out: Absolute Qualified AC50
Text: as §1, §2, §3, §4, §5, §6, §7

SBC5 = conditions: Homo sapiens, SBC-5; SBC5, 72 h, average of PrestoBlue and Cell Titer Glo; AKR1C3 5.5 TPM; read-out: Absolute Qualified AC50
Text: as §1, §2, §3, §4, §5, §6, §7

HLC-1 = conditions: HLC-1, 72 h, average of PrestoBlue and Cell Titer Glo; AKR1C3 expression: no data available; read-out: Absolute Qualified AC50
Text: as §1, §2, §3, §4, §5, §6, §7

NCI-H2405 = conditions: Homo sapiens; NCI-H2405, 72 h, average of PrestoBlue and Cell Titer Glo; AKR1C3 189.1 TPM; read-out: Absolute Qualified AC50
Text: as §1, §2, §3, §4, §5, §6, §7

| SMILES | AC50 (NCI-H1573) | AC50 (LCLC-103H) | AC50 (NCI-H460) | AC50 (LXF-289) | AC50 (CAL-12T) | AC50 (NCI-H1435) | AC50 (EBC-1) | AC50 (NCI-H2286) | AC50 (ChaGo-K-1) | AC50 (NCI-H520) | AC50 (HCC2108) | AC50 (SBC5) | AC50 (HLC-1) | AC50 (NCI-H2405) |
| --- | --- | --- | --- | --- | --- | --- | --- | --- | --- | --- | --- | --- | --- | --- |
| CN1c2ccc(F)cc2C(=O)CC12CCN(C(=O)NCc1ccc(F)c(NCCO)c1)CC2 [Example 36, 6′-fluoro-N-(4-fluoro-3-((2-hydroxyethyl)amino)benzyl)-1′-methyl-4′-oxo-3′,4′-dihydro-1′H-spiro[piperidine-4,2′-quinoline]-1-carboxamide] | 946 nM | > 1000 nM | 268 nM | 781 nM | > 1000 nM | 478 nM | > 1000 nM | > 1000 nM | > 1000 nM | > 1000 nM | > 1000 nM | > 1000 nM | > 1000 nM | 994 nM |
| O=C1CC2(CCN(C(=O)NCc3ccc(F)cc3)CC2)Nc2ccc(F)cc21 [Example 40] | 293 nM | > 1000 nM | 50 nM | 835 nM | > 1000 nM | 273 nM | > 1000 nM | > 1000 nM | > 1000 nM | > 1000 nM | > 1000 nM | > 1000 nM | > 1000 nM | 474 nM |
